In publication PMC3049593 (British Journal of Cancer, 2011):

Assays:
[1] = test system: LL/2 tumours and lung metastases; test: syngeneic Lewis Lung Carcinoma (LL/2) tumour growth and spontaneous metastasis model; format: in vivo, mice
Experimental: (§1) In the orthotopic Hep3b2.1-7 human liver cancer model, treatment of mice (n=10) began 14 days after inoculation of 2.5 × 10^6 cells. […] To initiate tumour xenografts, MDA-MB-231, PC3, Cal27 and HepG2 cells were injected s.c. into nude mice (n=8) at 4, 5, 2 and 2 × 10^7 cells ml^−1, respectively. […] In the B16F0 lung metastasis model, 2 × 10^5 cells were injected via the tail vein of C57Bl6 mice (n=8). […] Surface lung macrometastases were counted for each group (n=9) upon study termination. In the intrasplenic HT-29 xenograft model, 1 × 10^6 cells in 100 μl were injected into the spleen. […] Solid tumours were measured in two dimensions (length and width) and the tumour volume (cm^3) was calculated using the equation: V=length × width^2 × π/6. The anti-tumour activity was expressed as percent tumour growth inhibition (%TGI). Further details are available in Supplementary Methods. […]
(§2) efficacy/PK study) using either a once or twice weekly dosing schedule (see figure legends for dose schedules in each study) for up to three weeks. […]
In the LL/2 mouse model, treatment of mice commenced on the day of inoculation (Day 0). Mice inoculated subcutaneously were treated with either Vehicle Control […]
once weekly or Sorafenib (60mg/kg, once daily, p.o.). The treatments were continued for three weeks. The lungs were excised from all mice at the time of culling for metastasis […]
count determination. […]
(§3) In relevant models, solid tumours were measured in two dimensions (length and width) and the tumour volume (mm3) calculated using the equation V = length × width2 × π/6.The anti-tumour activity was assessed by the comparison of the mean tumour volume of the treated groups to the mean tumour volume of the control group and expressed as the percent Tumour Growth Inhibition (TGI) using the equation:
(§4) %TGI = (1-((VendPG545 - VstartPG545) / (VendControl - VstartControl)))*100 VendPG545 = Ending Tumour Volume of PG545-treated animal
(§5) VstartPG545 = Starting Tumour Volume of PG545-treated animal
(§6) VendControl = Ending Tumour Volume of Control animal
(§7) VstartControl = Starting Tumour Volume of Control animal […]
(§8) After collection, 0.2 mL of […]
(§9) whole blood was added to a glass scintillation vial to which 1 mL Solvable was added.
(§10) Samples were incubated for one hour at 55-60°C. 0.1 mL of 0.1 M EDTA-di-sodium salt solution and 0.3 mL to 0.5 mL of 30% hydrogen peroxide in 0.1 mL aliquots were added to the sample. Samples were gently agitated between additions to allow reaction foaming to subside. Samples were incubated for 30 minutes at room temperature. Vials were capped tightly and incubated again at 55 – 60 °C fo r 1 hour. Samples were cooled to room temperature and 15 mL of ULTIMA Gold added.
(§11) For tumour samples, 100 mg of tissue was placed in a 20 mL glass scintillation vial and 2 mL of Solvable added. The samples were incubated at 50 - 60 °C for 1 hour with occasional swirling. Samples were cooled to room temperature and for tumours, 0.3 mL of 30% hydrogen peroxide in three aliquots of 0.1 mL were added. The samples were again incubated at 50 - 60 °C for 1 hour with occasional swirling. Tumours samples were […]

Hep3b2.1-7 tumours = test: orthotopic Hep3b2.1-7 human liver cancer model; format: in vivo, mice; conditions: 30 mg kg^−1 daily
Experimental: as §1
In the Hep3b2.1-7 model, the cells resuspended in HBSS:MatrigelTM (1:1, v/v) to a final concentration of 5 x 10^8 cells/mL were inoculated following an incision into the skin directly over the liver to expose the main lobe of the liver. The needle was introduced into the main lobe of the liver, where 2.5 x 106 Hep3b2.1-7 cells (in 5 µL with 50% Matrigel) were discharged. The treatment of mice began 24 days after inoculation of the […]
either a once or twice weekly dosing schedule (see figure legends for dose schedules in each study) for up to three weeks. […]
as §2, §3, §4, §5, §6, §7, §8, §9
Samples were incubated for one hour at 55-60°C. 0.1 mL of 0.1 M EDTA-di-sodium salt solution and 0.3 mL to 0.5 mL of 30% hydrogen peroxide in 0.1 mL aliquots were added to the sample. Samples were gently agitated between additions to allow reaction foaming to subside. Samples were incubated for 30 minutes at room temperature. […]

[2] = tumour and tissue pharmacokinetics of [3H]-PG545 in Hep3b tumour-bearing mice; format: in vivo; conditions: for tumour AUC0-t / tumour Cmax: model independent analysis; for Kt, rate constant of uptake from the tumor / t½b / t½t: one compartment model
Description: Analysis of the tumour [^3H]-PG545 concentration vs time data required use of a more physiologically based PK model such that tumour concentrations were estimated from the tumour mass being perfused with blood containing [^3H]-PG545 and where the blood [^3H]-PG545 concentration changed over time.
Table S1 – Pharmacokinetic analysis of mean tumour [3H]-PG545 concentrations in […]
Model Independent Analysis of Mean Tumor [3H]-PG545 Conc. Versus Time Data Parameter First Dose Second Dose Third Dose Notes: Cmax and Tmax were derived from visual inspection of the data following Cmax (µ g/ml) 37 45 44 s.c. administration of up to three doses of […]
One Compartment Model derived from Mean Tumor [3H]-PG545 Conc. Versus Time Data Parameter First Dose Second Dose Third Dose Notes: Based on assumptions including - 1) All processes are linear with no […]
timeframe of the experiment.
3) Tumor [3H]-PG545 conc is driven by the blood conc of [3H]-PG545 t½t (h) 15.7 15.4 16.3 4) Rate of uptake is proportional to blood […]
5) Rate of return from tumor to blood is proportional to tumor conc.
Kb is the rate constant of uptake into the tumor, in h-1
Kt is the rate constant of uptake from the tumor, in h-1 […]
(§12) Pharmacokinetic sampling and analysis
(§13) Samples were collected from three animals at each of four time points – 12 hours, 24 hours, 48 hours and 96 hours post-treatment. At each of these times, whole blood was collected by cardiac puncture and tumours were excised. After collection, 0.2 mL of whole blood was added to a glass scintillation vial to which 1 mL Solvable was added.
as §10, §11
(§14) then treated with 15 mL of ULTIMA Gold. To count radioactivity, a Tri-Carb 2800TR liquid scintillation counter from PerkinElmer was used at the Institute of Medical and Veterinary Science (Adelaide, Australia). All parameters were calculated using the QuantaSmart software package. Where DPM values were missing, the following procedure was performed. Efficiency was calculated by generating an efficiency curve using complete samples (where efficiency = Counts Per Minute/Disintegrations Per Minute), and plotted these values against the provided corresponding transformed spectral index of external standard (tSIE) values.
(§15) The pharmacokinetic parameters, Cmax (maximum plasma concentration), Tmax (time of maximum plasma concentration), kelim (terminal elimination rate constant), t½ (half-life), and AUC (area under the concentration versus time curve) were derived from the blood [3H]-PG545 concentration versus time data using model independent methods. In addition, a linear pharmacokinetic model comprising mono-exponential absorption and bi-exponential disposition and elimination was used to simultaneously model the mean blood concentration versus time data for [3H]-PG545 and the following pharmacokinetic parameters, Cmax and Tmax, t½, AUC0-t and AUC0-∞ for [3H]-PG545 were estimated.
(§16) Analysis of the tumour [3H]-PG545 concentration versus time data required use of a more physiologically-based pharmacokinetic model such that tumour concentrations were estimated on the basis of the tumour mass being perfused with blood containing [3H]- […]

[3] = blood pharmacokinetics of [3H]-PG545 in Hep3b tumour-bearing mice; format: in vivo; conditions: for AUC0−t / Cmax / Tmax / t½: blood, 20 mg kg^−1 every 96 h
Experimental: Analysis of the tumour [^3H]-PG545 concentration vs time data required use of a more physiologically based PK model such that tumour concentrations were estimated from the tumour mass being perfused with blood containing [^3H]-PG545 and where the blood [^3H]-PG545 concentration changed over time. […]
as §12, §13, §10, §11, §14, §15, §16
(Applied Biosystems) preceded by a Spark Symbiosis Direct On-line Solid Phase Extraction system. Briefly, using a deep-well 96-well plate, 100 µL plasma was mixed with 10 µL standard solution (or water for unknowns) plus 10 µL internal standard solution (PG562 at 100 µg/mL (deionised water for double blank)).This was then mixed for at least 1 min (Ratek Platform Shaker) and incubated at room temperature for 20 mins prior to addition of 25 µL SDS solution (10 mg SDS in 1 mL deionised water) + 75 µL CHAPS solution (50 mg CHAPS in 1 mL deionised water) and 50 µL Proteinase K solution (10 mg Proteinase K in 1 mL 5 mM CaCl2). Following a mixing step this was incubated at 37°C for 2.5 hours prior to addition of 250 µL deionised water and placed into the Spark Symbiosis system.
The Tmax and Cmax on each sampling day were determined for each dose level by visual inspection of the mean data. […]

[4] = 20 mg kg^−1 s.c. every 96 h, three doses

CNC(=O)c1cc(Oc2ccc(NC(=O)Nc3ccc(Cl)c(C(F)(F)F)c3)cc2)ccn1 [sorafenib, reference compound]
effect on metastasis ([1]; 60 mg kg^−1 daily): no effect on metastasis
TGI (primary tumour) ([1]; 60 mg kg^−1 qd): 44%
TGI (Hep3b2.1-7 tumours): 58%

[3H][C@H]1[C@H](O[C@@H]2O[C@H](COS(=O)(=O)[O-])[C@@H](O[C@H]3O[C@H](COS(=O)(=O)[O-])[C@@H](O[C@H]4O[C@H](COS(=O)(=O)[O-])[C@@H](O[C@H]5O[C@H](COS(=O)(=O)[O-])[C@@H](OS(=O)(=O)[O-])[C@H](OS(=O)(=O)[O-])[C@H]5OS(=O)(=O)[O-])[C@H](OS(=O)(=O)[O-])[C@H]4OS(=O)(=O)[O-])[C@H](OS(=O)(=O)[O-])[C@H]3OS(=O)(=O)[O-])[C@H](OS(=O)(=O)[O-])[C@H]2OS(=O)(=O)[O-])C[C@@H]2CC[C@H]3[C@@H]4CC[C@H]([C@H](C)CCCC(C)C)[C@@]4(C)CC[C@@H]3[C@@]2(C)[C@H]1[3H].[Na+].[Na+].[Na+].[Na+].[Na+].[Na+].[Na+].[Na+].[Na+].[Na+].[Na+].[Na+].[Na+] [[^3H]-PG545]
Cmax in kidney ([2]; following a single dose): 39 µg/g
Cmax in liver ([2]; following a single dose): 106 µg/g
tumour AUC0-t ([2]; first dose): 2800 µ g.h/g
tumour Cmax ([2]; first dose): 37 µ g/ml
tumour AUC0-t ([2]; second dose): 3662 µ g.h/g
tumour Cmax ([2]; second dose): 45 µ g/ml
tumour AUC0-t ([2]; third dose): 3304 µ g.h/g
tumour Cmax ([2]; third dose): 44 µ g/ml
Kt, rate constant of uptake from the tumor ([2]; first dose): 0.0441 h⁻¹
t½b ([2]; first dose): 12.8 h
t½t ([2]; first dose): 15.7 h
Kt, rate constant of uptake from the tumor ([2]; second dose): 0.0449 h⁻¹
t½b ([2]; second dose): 13.3 h
t½t ([2]; second dose): 15.4 h
Kt, rate constant of uptake from the tumor ([2]; third dose): 0.0425 h⁻¹
t½b ([2]; third dose): 16.5 h
t½t ([2]; third dose): 16.3 h
t½b, uptake from the bloodstream into the tumour (range over doses) ([2]; one-compartment PK model): 12.8 to 16.5 h
tumour Cmax (range over doses) ([2]; tumour tissue, 20 mg kg^−1 s.c. every 96 h, three doses): 36.6 to 45.1 µg/g
tumour Tmax ([2]; tumour tissue, one dose (first dose)): 12 h
tumour Tmax ([2]; tumour tissue, three doses (third dose)): ≥ 96 h
tumour Tmax ([2]; tumour tissue, two doses (second dose)): 48 h
mean blood Cmax (range over doses) [3, 4]: 25900 to 29000 ng/mL
mean blood Tmax (range over doses) [3, 4]: 2 to 6 h
mean elimination half-life (t½) in blood ([3]; 20 mg kg^−1 s.c., up to three bolus doses at 96 h intervals): > 50 h
AUC0−t ([3]; first dose): 991 µg·h/mL
Cmax ([3]; first dose): 28000 ng/mL
Tmax ([3]; first dose): 4 h
t½ ([3]; first dose): 65 h
AUC0−t ([3]; second dose): 1208 µg·h/mL
Cmax ([3]; second dose): 26000 ng/mL
Tmax ([3]; second dose): 2 h
AUC0−t ([3]; third dose): 1556 µg·h/mL
Cmax ([3]; third dose): 29000 ng/mL
Tmax ([3]; third dose): 6 h
t½ ([3]; third dose): 117 h
